Assay results from ChEMBL document CHEMBL3217591, “Synthesis and biological evaluation of imidazolylmethylacridones as cytochrome P-450 enzymes inhibitors” (Medchemcomm, 2012).

How the values were obtained:
[1] = target: T1, Cytochrome P450 11B1, mitochondrial (Homo sapiens, UniProt P15538); experiment: Inhibition of CYP11B1 (unknown origin) expressed in Chinese hamster V79MZ cells using [1,2-3H]-11-deoxycorticosterone as substrate at 500 nM preincubated for 60 mins followed by substrate addition measured after 25 mins by HPLC analysis relative to control; assay type: cell-based
T1 sequence (P15538 whole entry): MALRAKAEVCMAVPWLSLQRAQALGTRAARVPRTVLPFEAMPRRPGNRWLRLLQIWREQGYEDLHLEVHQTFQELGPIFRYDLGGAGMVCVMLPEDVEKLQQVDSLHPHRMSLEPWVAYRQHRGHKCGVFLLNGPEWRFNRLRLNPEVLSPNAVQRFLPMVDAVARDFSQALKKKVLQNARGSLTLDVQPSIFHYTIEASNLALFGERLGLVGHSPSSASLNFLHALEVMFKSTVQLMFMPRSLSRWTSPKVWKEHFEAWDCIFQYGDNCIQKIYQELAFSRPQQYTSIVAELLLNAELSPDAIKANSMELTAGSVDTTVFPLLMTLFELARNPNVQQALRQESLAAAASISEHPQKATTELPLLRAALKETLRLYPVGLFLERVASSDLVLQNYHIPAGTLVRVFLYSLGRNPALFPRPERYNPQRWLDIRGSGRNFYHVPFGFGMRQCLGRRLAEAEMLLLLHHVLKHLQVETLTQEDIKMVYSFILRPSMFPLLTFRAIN

[2] = target: T1, Cytochrome P450 11B1, mitochondrial; experiment: Inhibition of CYP11B1 (unknown origin) expressed in Chinese hamster V79MZ cells using [1,2-3H]-11-deoxycorticosterone as substrate preincubated for 60 mins followed by substrate addition measured after 25 mins by HPLC analysis; assay type: cell-based
[3] = target: T2, Cytochrome P450 11B2, mitochondrial (Homo sapiens, UniProt P19099); experiment: Inhibition of CYP11B2 (unknown origin) expressed in Chinese hamster V79MZ cells using [1,2-3H]-11-deoxycorticosterone as substrate at 500 nM preincubated for 60 mins followed by substrate addition measured after 50 mins by HPLC analysis relative to control; assay type: cell-based
T2 sequence (P19099 whole entry): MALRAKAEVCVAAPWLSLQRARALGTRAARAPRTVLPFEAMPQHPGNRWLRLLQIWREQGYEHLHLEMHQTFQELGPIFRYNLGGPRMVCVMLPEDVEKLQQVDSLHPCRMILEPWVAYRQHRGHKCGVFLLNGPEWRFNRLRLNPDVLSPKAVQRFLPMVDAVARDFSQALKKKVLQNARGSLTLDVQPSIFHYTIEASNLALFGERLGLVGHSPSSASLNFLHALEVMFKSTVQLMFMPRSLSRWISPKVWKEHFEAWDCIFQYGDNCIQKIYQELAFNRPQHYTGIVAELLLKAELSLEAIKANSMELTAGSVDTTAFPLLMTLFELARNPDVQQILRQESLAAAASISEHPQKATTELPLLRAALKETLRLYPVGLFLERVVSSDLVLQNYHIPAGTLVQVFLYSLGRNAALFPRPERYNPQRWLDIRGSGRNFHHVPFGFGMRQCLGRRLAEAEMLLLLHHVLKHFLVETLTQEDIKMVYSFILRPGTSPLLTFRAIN

[4] = target: T3, Steroid 17-alpha-hydroxylase/17,20 lyase (Homo sapiens, UniProt P05093); experiment: Inhibition of human CYP17 expressed in Escherichia coli using progesterone as substrate at 2 uM preincubated for 5 mins followed by enzyme addition measured after 30 mins by HPLC analysis relative to control; settings: 0.5 h
T3 sequence (P05093 whole entry): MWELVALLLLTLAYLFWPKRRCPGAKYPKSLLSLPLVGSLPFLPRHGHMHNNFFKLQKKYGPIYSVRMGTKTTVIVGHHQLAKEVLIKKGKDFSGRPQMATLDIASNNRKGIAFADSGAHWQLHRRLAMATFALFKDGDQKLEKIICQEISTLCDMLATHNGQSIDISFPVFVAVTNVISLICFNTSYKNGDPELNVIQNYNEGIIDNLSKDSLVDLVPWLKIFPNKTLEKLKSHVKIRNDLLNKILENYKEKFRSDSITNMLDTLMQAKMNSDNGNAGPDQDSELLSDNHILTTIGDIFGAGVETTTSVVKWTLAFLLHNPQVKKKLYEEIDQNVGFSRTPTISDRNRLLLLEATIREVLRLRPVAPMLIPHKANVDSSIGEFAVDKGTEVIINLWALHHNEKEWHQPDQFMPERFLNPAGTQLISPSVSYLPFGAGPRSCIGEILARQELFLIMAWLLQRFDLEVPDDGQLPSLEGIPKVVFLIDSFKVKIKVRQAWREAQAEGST

Aromatase [5] = target: T4, Aromatase (Homo sapiens, UniProt P11511); experiment: Inhibition of CYP19 isolated from microsomal fraction of human term placental tissue using [1beta-3H] androstenedione as substrate at 2 uM preincubated for 5 mins followed by enzyme addition measured after 20 mins by beta scintillation counting analysis relative to control
T4 sequence (P11511 whole entry): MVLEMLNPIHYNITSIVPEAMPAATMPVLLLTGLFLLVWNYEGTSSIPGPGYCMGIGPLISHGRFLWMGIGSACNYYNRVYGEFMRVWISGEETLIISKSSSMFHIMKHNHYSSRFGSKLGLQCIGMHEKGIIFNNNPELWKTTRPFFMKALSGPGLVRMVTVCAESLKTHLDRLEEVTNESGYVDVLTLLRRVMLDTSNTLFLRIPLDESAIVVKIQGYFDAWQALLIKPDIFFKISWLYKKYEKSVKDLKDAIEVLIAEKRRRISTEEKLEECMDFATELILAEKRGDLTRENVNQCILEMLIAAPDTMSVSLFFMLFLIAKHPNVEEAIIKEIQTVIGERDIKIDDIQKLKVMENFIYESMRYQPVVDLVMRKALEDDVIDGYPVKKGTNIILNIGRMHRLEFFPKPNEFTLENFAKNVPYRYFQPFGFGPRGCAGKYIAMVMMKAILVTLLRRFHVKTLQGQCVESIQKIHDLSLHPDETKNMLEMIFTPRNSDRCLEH

Aromatase [6] = target: T4, Aromatase; experiment: Inhibition of CYP19 isolated from microsomal fraction of human term placental tissue using [1beta-3H] androstenedione as substrate preincubated for 5 mins followed by enzyme addition measured after 20 mins by beta scintillation counting analysis

| Structure (SMILES) | inhibition at 0.5 µM [1] [%] | IC50 [2] [nM] | inhibition at 0.5 µM [3] [%] | inhibition at 2 µM [4] [%] | inhibition at 2 µM (Aromatase [5]) [%] | IC50 (Aromatase [6]) [nM] |
| --- | --- | --- | --- | --- | --- | --- |
| O=c1c2ccccc2[nH]c2c(Cn3ccnc3)cccc12 | 97.5 | 21.2 | 40.8 | 1.4 | 95.5 | 14.4 |
| O=c1c2ccccc2[nH]c2ccc(Cn3ccnc3)cc12 | 40.7 |  | 3.4 | 0 | 0 |  |
| N#Cc1ccc(C(c2ccc(C#N)cc2)n2cncn2)cc1 [LETROZOLE] | 16.4 |  | 25.6 | 6.8 | 99 |  |
| CC(C)(C(=O)c1cccnc1)c1cccnc1 [METYRAPONE] | 98 |  | 95 |  | 0 |  |
